# Test results as given in PubChem BioAssay (NCI).
#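 Following 48 hours of exposure in 96-well plates, responses at five concentrations were used to interpolate endpoints linearly. Definition used: TGI = concentration required for complete inhibition of growth.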
# What was measured:
# Assay in all cases: NCI tumour cell line growth inhibition, 48 h
# NCI-H460 lung = test system: NCI-H460 lung
# UACC-62 melanoma = test system: UACC-62 melanoma
# MOLT-4 leukemia = test system: MOLT-4 leukemia
# SW-620 colon = test system: SW-620 colon
# SNB-19 CNS = test system: SNB-19 CNS
# HCT-116 colon = test system: HCT-116 colon
# NCI-H23 lung = test system: NCI-H23 lung
# A549 NSCLC = test system: A549 NSCLC
# HCC-2998 colon = test system: HCC-2998 colon
# SK-MEL-5 melanoma = test system: SK-MEL-5 melanoma
# OVCAR-3 ovarian = test system: OVCAR-3 ovarian
# HL-60(TB) leukemia = test system: HL-60(TB) leukemia
# UO-31 renal = test system: UO-31 renal
# OVCAR-5 ovarian = test system: OVCAR-5 ovarian
# UACC-257 melanoma = test system: UACC-257 melanoma
# NCI-H226 lung = test system: NCI-H226 lung
# HOP-62 NSCLC = test system: HOP-62 NSCLC
# DMS 114 small cell lung = test system: DMS 114 small cell lung
# DMS 273 small cell lung = test system: DMS 273 small cell lung
# SN12C renal = test system: SN12C renal
smiles,measurement,setting,value
Cc1nc2c(sc(=S)n2-c2ccccc2)c(=O)[nH]1,TGI,NCI-H460 lung,> 100 µM
same,TGI,UACC-62 melanoma,> 100 µM
same,TGI,MOLT-4 leukemia,> 100 µM
same,TGI,SW-620 colon,> 100 µM
same,TGI,SNB-19 CNS,> 100 µM
same,TGI,HCT-116 colon,> 100 µM
same,TGI,NCI-H23 lung,> 100 µM
same,TGI,A549 NSCLC,> 100 µM
same,TGI,HCC-2998 colon,> 100 µM
same,TGI,SK-MEL-5 melanoma,> 100 µM
same,TGI,OVCAR-3 ovarian,> 100 µM
same,TGI,HL-60(TB) leukemia,> 100 µM
same,TGI,UO-31 renal,> 100 µM
same,TGI,OVCAR-5 ovarian,> 100 µM
same,TGI,UACC-257 melanoma,> 100 µM
same,TGI,NCI-H226 lung,> 100 µM
same,TGI,HOP-62 NSCLC,> 100 µM
COc1ccccc1Cc1nc(-c2ccccc2)nn(C2OC(COC(C)=O)C(OC(C)=O)C(OC(C)=O)C2OC(C)=O)c1=S (centres undefined),TGI,NCI-H460 lung,> 73.5 µM
same,TGI,UACC-62 melanoma,> 80.3 µM
same,TGI,DMS 114 small cell lung,> 100 µM
same,TGI,MOLT-4 leukemia,> 100 µM
same,TGI,SW-620 colon,> 100 µM
same,TGI,DMS 273 small cell lung,> 79.6 µM
same,TGI,SNB-19 CNS,> 52.7 µM
same,TGI,HCT-116 colon,> 45.9 µM
same,TGI,NCI-H23 lung,42.6 µM
same,TGI,A549 NSCLC,> 100 µM
same,TGI,HCC-2998 colon,> 43.2 µM
same,TGI,SK-MEL-5 melanoma,26.1 µM
same,TGI,OVCAR-3 ovarian,> 85.3 µM
same,TGI,HL-60(TB) leukemia,> 100 µM
same,TGI,UO-31 renal,> 86 µM
same,TGI,OVCAR-5 ovarian,> 100 µM
same,TGI,UACC-257 melanoma,> 100 µM
same,TGI,SN12C renal,32.2 µM
same,TGI,NCI-H226 lung,> 95.7 µM
same,TGI,HOP-62 NSCLC,38.3 µM
COc1ccc(C2N(NC(=O)c3ccncc3)C(=O)CS2(=O)=O)cc1F (centres undefined),TGI,NCI-H460 lung,> 100 µM
same,TGI,DMS 114 small cell lung,> 100 µM
same,TGI,MOLT-4 leukemia,> 100 µM
same,TGI,SW-620 colon,> 100 µM
same,TGI,DMS 273 small cell lung,> 100 µM
same,TGI,SNB-19 CNS,> 100 µM
same,TGI,HCT-116 colon,> 100 µM
same,TGI,NCI-H23 lung,> 100 µM
same,TGI,A549 NSCLC,> 100 µM
same,TGI,HCC-2998 colon,> 100 µM
same,TGI,SK-MEL-5 melanoma,> 100 µM
same,TGI,HL-60(TB) leukemia,> 100 µM
same,TGI,OVCAR-5 ovarian,> 100 µM
same,TGI,UACC-257 melanoma,> 100 µM
same,TGI,SN12C renal,> 100 µM
same,TGI,NCI-H226 lung,> 100 µM
same,TGI,HOP-62 NSCLC,> 100 µM
COc1cc2c(cc1OC)C(Cl)C(c1ccc(Cl)c(Cl)c1)=C2Cl (centres undefined),TGI,NCI-H460 lung,16 µM
same,TGI,UACC-62 melanoma,18.7 µM
same,TGI,DMS 114 small cell lung,15.9 µM
same,TGI,MOLT-4 leukemia,12.3 µM
same,TGI,SW-620 colon,20 µM
same,TGI,DMS 273 small cell lung,14.7 µM
same,TGI,SNB-19 CNS,41.8 µM
same,TGI,NCI-H23 lung,> 100 µM
same,TGI,SK-MEL-5 melanoma,19.8 µM
same,TGI,OVCAR-3 ovarian,15.2 µM
same,TGI,HL-60(TB) leukemia,9.47 µM
same,TGI,UO-31 renal,24.8 µM
same,TGI,SN12C renal,26.5 µM
same,TGI,NCI-H226 lung,23.9 µM
COc1cc2cc[n+]3c(C)c4cc(OC)c(OC)cc4c([O-])c3c2cc1OC,TGI,NCI-H460 lung,> 100 µM
same,TGI,UACC-62 melanoma,> 100 µM
same,TGI,DMS 114 small cell lung,62.1 µM
same,TGI,MOLT-4 leukemia,> 100 µM
same,TGI,SW-620 colon,> 100 µM
same,TGI,DMS 273 small cell lung,> 100 µM
same,TGI,SNB-19 CNS,> 100 µM
same,TGI,HCT-116 colon,> 100 µM
same,TGI,NCI-H23 lung,> 100 µM
same,TGI,A549 NSCLC,> 100 µM
same,TGI,HCC-2998 colon,> 100 µM
same,TGI,SK-MEL-5 melanoma,> 100 µM
same,TGI,OVCAR-3 ovarian,24.7 µM
same,TGI,HL-60(TB) leukemia,48.8 µM
same,TGI,UO-31 renal,> 100 µM
same,TGI,OVCAR-5 ovarian,> 100 µM
same,TGI,UACC-257 melanoma,> 100 µM
same,TGI,SN12C renal,> 100 µM
same,TGI,NCI-H226 lung,> 100 µM
same,TGI,HOP-62 NSCLC,> 100 µM
NCCCN(CCCN)CCN(CCN(CCCN)CCCN)CCN(CCCN)CCCN,TGI,NCI-H460 lung,> 100 µM
same,TGI,SW-620 colon,> 100 µM
same,TGI,SNB-19 CNS,> 100 µM
same,TGI,HCT-116 colon,> 100 µM
same,TGI,NCI-H23 lung,> 100 µM
same,TGI,A549 NSCLC,> 100 µM
same,TGI,HCC-2998 colon,> 100 µM
same,TGI,SK-MEL-5 melanoma,> 100 µM
same,TGI,OVCAR-3 ovarian,> 100 µM
same,TGI,HL-60(TB) leukemia,> 100 µM
same,TGI,UO-31 renal,> 100 µM
same,TGI,OVCAR-5 ovarian,> 100 µM
same,TGI,UACC-257 melanoma,> 100 µM
same,TGI,SN12C renal,> 100 µM
same,TGI,NCI-H226 lung,> 100 µM
same,TGI,HOP-62 NSCLC,> 100 µM
COc1cc(C(C)c2cc3c(cc2OCCO)OCO3)cc(OC)c1OC (centres undefined),TGI,NCI-H460 lung,> 100 µM
same,TGI,UACC-62 melanoma,> 100 µM
same,TGI,DMS 114 small cell lung,3.77 µM
same,TGI,MOLT-4 leukemia,> 100 µM
same,TGI,SW-620 colon,> 100 µM
same,TGI,DMS 273 small cell lung,> 100 µM
same,TGI,SNB-19 CNS,> 100 µM
same,TGI,HCT-116 colon,> 100 µM
same,TGI,A549 NSCLC,> 100 µM
same,TGI,HCC-2998 colon,> 100 µM
same,TGI,SK-MEL-5 melanoma,> 100 µM
same,TGI,HL-60(TB) leukemia,2.02 µM
same,TGI,UO-31 renal,> 100 µM
same,TGI,OVCAR-5 ovarian,> 100 µM
same,TGI,UACC-257 melanoma,> 100 µM
same,TGI,SN12C renal,> 100 µM
same,TGI,NCI-H226 lung,> 100 µM
same,TGI,HOP-62 NSCLC,> 100 µM
CCOC(=O)Cc1cc(OC)c(OC)cc1/C(Cl)=C(\C=O)c1ccc(OC)c(OC)c1,TGI,NCI-H460 lung,17.9 µM
same,TGI,UACC-62 melanoma,37.9 µM
same,TGI,DMS 114 small cell lung,48.8 µM
same,TGI,MOLT-4 leukemia,42.1 µM
same,TGI,SW-620 colon,57 µM
same,TGI,DMS 273 small cell lung,44.3 µM
same,TGI,SNB-19 CNS,> 100 µM
same,TGI,HCT-116 colon,29 µM
same,TGI,NCI-H23 lung,51.2 µM
same,TGI,A549 NSCLC,57.1 µM
same,TGI,SK-MEL-5 melanoma,35.1 µM
same,TGI,OVCAR-3 ovarian,28.1 µM
same,TGI,HL-60(TB) leukemia,40.9 µM
same,TGI,UO-31 renal,85.3 µM
same,TGI,UACC-257 melanoma,32.9 µM
same,TGI,SN12C renal,33.5 µM
same,TGI,HOP-62 NSCLC,46.9 µM
